Several values for one entry are separate records, joined by “and”; a condition that tells them apart may be missing. Equal entries are not always repeated. Toxic doses and inconclusive results are not listed.
System: L1210 leukemia ip in BDF1 mice, survival T/C
Experiment: NCI In Vivo Anticancer Drug Screen. Data for tumor model L1210 Leukemia (intraperitoneal) in B6D2F1 (BDF1) mice
Conditions: endpoint: mean survival time, higher = longer survival
In short: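 Transplantable tumor model; survival measured in treated vs vehicle control mice. Value = treated/control.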

[1] = dose: 100.0 mg/kg/injection, schedule: Q04DX002 (ip), vehicle: Klucel (hydroxypropylcellulose) (HPC)
[2] = dose: 200.0 mg/kg/injection, schedule: Q04DX002 (ip), vehicle: Klucel (hydroxypropylcellulose) (HPC)
[3] = dose: 400.0 mg/kg/injection, schedule: Q04DX002 (ip), vehicle: Klucel (hydroxypropylcellulose) (HPC)
[4] = dose: 100.0 mg/kg/injection, schedule: Q04DX003 (ip), vehicle: saline with Tween-80
[5] = dose: 200.0 mg/kg/injection, schedule: Q04DX003 (ip), vehicle: saline with Tween-80
[6] = dose: 400.0 mg/kg/injection, schedule: Q04DX003 (ip), vehicle: saline with Tween-80
[7] = dose: 100.0 mg/kg/injection, schedule: Q01DX009 (ip), vehicle: Klucel (hydroxypropylcellulose) (HPC)
[8] = dose: 200.0 mg/kg/injection, schedule: Q01DX009 (ip), vehicle: Klucel (hydroxypropylcellulose) (HPC)
[9] = dose: 400.0 mg/kg/injection, schedule: Q01DX009 (ip), vehicle: Klucel (hydroxypropylcellulose) (HPC)
[10] = dose: 100.0 mg/kg/injection, schedule: Q01DX001 (ip), vehicle: saline
[11] = dose: 100.0 mg/kg/injection, schedule: Q04DX003 (ip), vehicle: Klucel (hydroxypropylcellulose) (HPC)
[12] = dose: 200.0 mg/kg/injection, schedule: Q04DX003 (ip), vehicle: Klucel (hydroxypropylcellulose) (HPC)
[13] = dose: 400.0 mg/kg/injection, schedule: Q04DX003 (ip), vehicle: Klucel (hydroxypropylcellulose) (HPC)
[14] = dose: 100.0 mg/kg/injection, schedule: Q01DX001 (ip), vehicle: Klucel (hydroxypropylcellulose) (HPC)
[15] = dose: 200.0 mg/kg/injection, schedule: Q01DX001 (ip), vehicle: saline
[16] = dose: 400.0 mg/kg/injection, schedule: Q01DX001 (ip), vehicle: saline

Cc1cccc(SC(=O)Nc2ccc([N+](=O)[O-])cc2Cl)c1
T/C [1]: 100 % of control | T/C [2]: 116 % of control | T/C [3]: 92 % of control

CN(NC(=O)CC(=O)NN(C)C(=S)c1ccccc1)C(=S)c1ccccc1
T/C (dose: 25.0 mg/kg/injection, schedule: Q01DX009 (ip), vehicle: gum acacia): 109 % of control | T/C (dose: 50.0 mg/kg/injection, schedule: Q01DX009 (ip), vehicle: gum acacia): 104 % of control | T/C (dose: 100.0 mg/kg/injection, schedule: Q01DX009 (ip), vehicle: gum acacia): 100 % of control and 92 % of control | T/C (dose: 100.0 mg/kg/injection, schedule: Q04DX003 (ip), vehicle: gum acacia): 90 % of control | T/C (dose: 200.0 mg/kg/injection, schedule: Q04DX003 (ip), vehicle: gum acacia): 97 % of control | T/C (dose: 400.0 mg/kg/injection, schedule: Q04DX003 (ip), vehicle: gum acacia): 92 % of control

CCOC(=O)NC(C)(C)CN(C(=O)OCC)C(C)C
T/C [4]: 97 % of control | T/C [5]: 101 % of control | T/C [6]: 117 % of control

Cc1noc(NC(=O)Nc2ccccc2C(F)(F)F)c1C
T/C [7]: 95 % of control and 103 % of control | T/C [1]: 92 % of control and 97 % of control | T/C [8]: 92 % of control and 118 % of control | T/C [2]: 101 % of control and 119 % of control | T/C [9]: 101 % of control | T/C [3]: 105 % of control and 116 % of control

S=P1(c2ccccc2)Nc2cc(Cl)ccc2S1 (configuration not stated)
T/C (dose: 50.0 mg/kg/injection, schedule: Q01DX001 (ip), vehicle: saline): 105 % of control | T/C [10]: 106 % of control

CC1=CC(=O)CC(C)(C)C1(O)/C=C/C(C)=C/C(=O)O (configuration not stated)
T/C (dose: 12.5 mg/kg/injection, schedule: Q04DX003 (ip), vehicle: Klucel (hydroxypropylcellulose) (HPC)): 93 % of control | T/C (dose: 25.0 mg/kg/injection, schedule: Q01DX009 (ip), vehicle: Klucel (hydroxypropylcellulose) (HPC)): 87 % of control | T/C (dose: 25.0 mg/kg/injection, schedule: Q04DX003 (ip), vehicle: Klucel (hydroxypropylcellulose) (HPC)): 96 % of control | T/C (dose: 50.0 mg/kg/injection, schedule: Q01DX009 (ip), vehicle: Klucel (hydroxypropylcellulose) (HPC)): 88 % of control | T/C (dose: 50.0 mg/kg/injection, schedule: Q04DX003 (ip), vehicle: Klucel (hydroxypropylcellulose) (HPC)): 88 % of control | T/C [7]: 93 % of control | T/C [11]: 96 % of control | T/C [8]: 92 % of control | T/C [12]: 98 % of control | T/C [9]: 95 % of control | T/C [13]: 102 % of control

CN(C)C(=O)Nc1nc2cc(Cl)c(Cl)cc2[nH]1
T/C [14]: 98 % of control | T/C (dose: 200.0 mg/kg/injection, schedule: Q01DX001 (ip), vehicle: Klucel (hydroxypropylcellulose) (HPC)): 100 % of control | T/C (dose: 400.0 mg/kg/injection, schedule: Q01DX001 (ip), vehicle: Klucel (hydroxypropylcellulose) (HPC)): 94 % of control

O=S(=O)(c1ccc(Cl)cc1)C1CCCC1Cl (configuration not stated)
T/C [10]: 110 % of control | T/C [15]: 109 % of control | T/C [16]: 100 % of control

CN/N=C/c1ccc(O)c(OC)c1
T/C [4]: 95 % of control | T/C [5]: 90 % of control | T/C [6]: 91 % of control

O=C(Nc1ccccc1CSc1nc2nc[nH]c(=O)c2[nH]1)c1ccc(S(=O)(=O)F)cc1
T/C (dose: 25.0 mg/kg/injection, schedule: Q01DX001 (ip), vehicle: Klucel (hydroxypropylcellulose) (HPC)): 108 % of control | T/C (dose: 50.0 mg/kg/injection, schedule: Q01DX001 (ip), vehicle: Klucel (hydroxypropylcellulose) (HPC)): 111 % of control | T/C [14]: 114 % of control

CCC1=C(CC2NCCc3ccccc32)CC2c3cc(OC)c(OC)cc3CCN2C1 (configuration not stated)
T/C (dose: 4.0 mg/kg/injection, schedule: Q04DX003 (ip), vehicle: water): 103 % of control | T/C (dose: 8.0 mg/kg/injection, schedule: Q04DX003 (ip), vehicle: water): 103 % of control | T/C (dose: 16.0 mg/kg/injection, schedule: Q04DX003 (ip), vehicle: water): 102 % of control | T/C (dose: 32.0 mg/kg/injection, schedule: Q04DX003 (ip), vehicle: water): 102 % of control | T/C (dose: 64.0 mg/kg/injection, schedule: Q04DX003 (ip), vehicle: water): 102 % of control | T/C (dose: 75.0 mg/kg/injection, schedule: Q01DX001 (ip), vehicle: saline): 95 % of control and 103 % of control | T/C (dose: 150.0 mg/kg/injection, schedule: Q01DX001 (ip), vehicle: saline): 100 % of control and 103 % of control | T/C (dose: 300.0 mg/kg/injection, schedule: Q01DX001 (ip), vehicle: saline): 100 % of control

Cc1cc(C)c(C(=O)O)cc1C(=O)O
T/C (dose: 50.0 mg/kg/injection, schedule: Q01DX009 (ip), vehicle: saline with Tween-80): 100 % of control | T/C (dose: 100.0 mg/kg/injection, schedule: Q01DX009 (ip), vehicle: saline with Tween-80): 100 % of control | T/C (dose: 200.0 mg/kg/injection, schedule: Q01DX009 (ip), vehicle: saline with Tween-80): 106 % of control

COC(=O)C1CC(OS(=O)(=O)c2ccc(C)cc2)CN1C(=O)OCc1ccccc1 (configuration not stated)
T/C [4]: 102 % of control | T/C [5]: 94 % of control | T/C [6]: 92 % of control

CCOC(=O)c1ccc(Nc2sc(C(=O)c3ccccc3)c(N)c2C#N)cc1
T/C (dose: 100.0 mg/kg/injection, schedule: Q04DX002 (ip), vehicle: saline with Tween-80): 120 % of control | T/C (dose: 200.0 mg/kg/injection, schedule: Q04DX002 (ip), vehicle: saline with Tween-80): 92 % of control | T/C (dose: 400.0 mg/kg/injection, schedule: Q04DX002 (ip), vehicle: saline with Tween-80): 89 % of control

CCN(CC)C(C(=O)Nc1ccccc1)C(=O)Nc1ccccc1
T/C [4]: 92 % of control | T/C [5]: 94 % of control | T/C [6]: 90 % of control

CC(=O)OC1CCC2C3CCC4=C(Cl)C(=O)CCC4C3CCC12C (configuration not stated)
T/C (dose: 100.0 mg/kg/injection, schedule: Q01DX009 (sc), vehicle: steriod suspending solution): 103 % of control | T/C (dose: 200.0 mg/kg/injection, schedule: Q01DX009 (sc), vehicle: steriod suspending solution): 102 % of control | T/C (dose: 400.0 mg/kg/injection, schedule: Q01DX009 (sc), vehicle: steriod suspending solution): 100 % of control

CC(=O)c1c2ccccc2cc2ccccc12
T/C [10]: 106 % of control | T/C [15]: 106 % of control | T/C [16]: 101 % of control

COC(=O)CCCCCNC(=O)NCCCCCC(=O)OC
T/C [7]: 90 % of control | T/C [11]: 95 % of control | T/C [8]: 87 % of control | T/C [12]: 93 % of control | T/C [9]: 90 % of control | T/C [13]: 93 % of control

Cc1nc(-c2ccc(N=Cc3ccc(N(CCOS(C)(=O)=O)CCOS(C)(=O)=O)cc3)cc2)c(C)s1
T/C (dose: 2.5 mg/kg/injection, schedule: Q04DX003 (ip), vehicle: Klucel (hydroxypropylcellulose) (HPC)): 109 % of control | T/C (dose: 5.0 mg/kg/injection, schedule: Q04DX003 (ip), vehicle: Klucel (hydroxypropylcellulose) (HPC)): 111 % of control | T/C (dose: 10.0 mg/kg/injection, schedule: Q04DX003 (ip), vehicle: Klucel (hydroxypropylcellulose) (HPC)): 122 % of control | T/C (dose: 40.0 mg/kg/injection, schedule: Q04DX003 (ip), vehicle: Klucel (hydroxypropylcellulose) (HPC)): 171 % of control | T/C (dose: 80.0 mg/kg/injection, schedule: Q04DX003 (ip), vehicle: Klucel (hydroxypropylcellulose) (HPC)): 117 % of control | T/C [11]: 100 % of control

CCC1CN1P1(=O)OCC(C)(C(=O)OC)CO1 (configuration not stated)
T/C [10]: 101 % of control | T/C [15]: 108 % of control | T/C [16]: 101 % of control

CN1CC(C(=O)N2CCCCC2)C=C2c3cccc4[nH]cc(c34)CC21 (configuration not stated)
T/C (dose: 3.12 mg/kg/injection, schedule: Q01DX009 (ip), vehicle: saline): 95 % of control | T/C (dose: 6.25 mg/kg/injection, schedule: Q01DX009 (ip), vehicle: saline): 97 % of control | T/C (dose: 12.5 mg/kg/injection, schedule: Q01DX009 (ip), vehicle: saline): 98 % of control | T/C (dose: 25.0 mg/kg/injection, schedule: Q01DX009 (ip), vehicle: saline): 104 % of control | T/C (dose: 25.0 mg/kg/injection, schedule: Q04DX003 (ip), vehicle: saline): 100 % of control | T/C (dose: 50.0 mg/kg/injection, schedule: Q01DX009 (ip), vehicle: saline): 93 % of control | T/C (dose: 50.0 mg/kg/injection, schedule: Q04DX003 (ip), vehicle: saline): 98 % of control | T/C (dose: 100.0 mg/kg/injection, schedule: Q04DX003 (ip), vehicle: saline): 97 % of control

Reference: PubChem BioAssay AID248 (DTP/NCI, 2004)
